Measured values taken from PubChem BioAssay AID2060898 (Molecular Pharmacology Branch, DTP, NCI, 2025).

Test system: 616215-338-R-J1-PDC complex spheroid viability
Experiment: Anticancer human tumor 616215-338-R-J1-PDC patient-derived colon adenocarcinoma cell line growth inhibition [RAS]
Conditions: for IC50: curve of first compound; for viability, T/C: stronger effect = lower value
Source text: RAS pathway inhibitors in Combinations in Complex Spheroids
A high-throughput screen of multi-cell type tumor spheroids was designed to identify active combinations of RAS pathway inhibitors and targeted small molecules. Complex spheroids include a stromal component modeled by human endothelial cells (HUVEC) and fibroblasts modeled by human mesenchymal stem cells (MSCs). The concentration ranges selected for each drug and investigational agent were based upon clinically achievable concentrations if the clinical Cmax of the agent was known.
Compounds. The drugs and investigational agents: abemaciclib (NSC768073), cobimetinib (NSC768068), divarasib (GDC6063, NSC841802), docetaxel (NSC628503), GDC-1971 (RLY-1971, NSC841576), gemcitabine (NSC613327), inavolisib (NSC800729), ipatasertib (NSC767898), KB-0742 (NSC834161), MRTX-1133 (NSC836407), osimertinib (NSC779217), RMC-4630 (NSC839698), RMC-6236 (NSC851965), RMC-6291 (NSC852671), Ro-3306 (NSC812927), sapanisertib (NSC764658), SN-38 (NSC673596), staurosporine (NSC755774), SY5609 (NSC837396), and tovorafenib (DAY101, NSC766906), were obtained from the National Cancer Institute (NCI) Developmental Therapeutics Program Chemical Repository. The FDA-approved anticancer drug set is available from the NCI Developmental Therapeutics Program. […] The stock solutions were prepared in dimethyl sulfoxide (DMSO, Sigma-Aldrich, St. Louis, MO, cat. D2650) at 800-fold the tested concentration and stored at -70 degrees C prior to their use. All drugs and investigational agents were tested over a range starting from a high concentration at or near the clinical Cmax and decreasing in half-log increments. If the clinical Cmax for an agent had not been determined, the highest concentration tested was 10 microM.
Cell Culture. All cells were maintained in an incubator at 37 degrees C and 5% CO2 with 95% humidity. The PDC lines were cultured according to standard operating procedures established by the NCI PDMR. All PDCs were thawed and cultured in Matrigel-coated flasks prepared with a working solution of 1X Ham's F-12 nutrient mix, without supplementation (Invitrogen, Waltham, MA, cat. 11765054), 100 U/mL penicillin-streptomycin (Invitrogen, cat. 15140122), and 2.5% Matrigel (Corning Inc., Corning, NY, cat. 354248) for the first three passages. The 362531-283-R-J2-PDC and 782815-120-R-J1-PDC lines were cultured in 6C/Colon 1B media, which includes advanced DMEM/F-12 (Thermo Fisher Scientific, cat. 12634028), 10 mM HEPES (Thermo Fisher Scientific, cat. 15630080), 1X GlutaMAX supplement (Thermo Fisher Scientific, cat. 35050061), 0.1 mg/mL primocin (InvivoGen, San Diego, CA, cat. ant-pm-2), 10% defined fetal bovine serum, heat inactivated (HyClone Laboratories Inc., Logan, UT, cat. SH30070.03HI), 50% L-WRN conditioned media (ATCC, cat. CRL-3276), 1.25 mM N-Acetyl-L-cysteine (Sigma-Aldrich, cat. A9165), 10 mM nicotinamide (Sigma-Aldrich, cat. N0636), 1X B-27 supplement (Thermo Fisher Scientific, cat. 17504044), 1X N-2 supplement (Thermo Fisher Scientific, cat. 17502048), 50 ng/mL human EGF (Thermo Fisher Scientific, cat. PHG0311), and 10 microM Y-27632 dihydrochloride (Tocris Bioscience, cat. 1254). The K12877-001-R-J1-PDC line was cultured in 6I media, which includes all 6C/Colon 1B media plus 10 ng/mL human FGF-10 (PeproTech, cat. 100-26), 1 ng/mL human FGF-2 (PeproTech, cat. 100-18B), 1 µM prostaglandin E2 (Tocris Bioscience, cat. 2296), […] hydrocortisone (Sigma-Aldrich, cat. H4001), and […] bovine insulin (Sigma-Aldrich, cat. I6634). The K86415-001-R-J1-PDC line was cultured in 6D media, which includes all 6C/Colon 1B media components minus the L-WRN conditioned media. The 485176-168-R4-J1-PDC was cultured in PANC media, which includes all 6C/Colon 1B media plus 100 ng/mL human FGF-10 (PeproTech, cat. 100-26), 500 nM SB-431542 (Selleckchem, cat. S1067), and 10 nM gastrin (Tocris Bioscience, cat. 3006). […]

[1] = second compound 0.0316 µM, first compound 0.00316 µM
[2] = second compound 0.0316 µM, first compound 0.01 µM
[3] = second compound 0.0316 µM, first compound 0.0316 µM
[4] = second compound 0.0316 µM, first compound 0.1 µM
[5] = second compound 0.0316 µM, first compound 0.316 µM
[6] = second compound 0.0316 µM, first compound 1 µM
[7] = second compound 0.1 µM, first compound 0.00316 µM
[8] = second compound 0.1 µM, first compound 0.01 µM
[9] = second compound 0.1 µM, first compound 0.0316 µM
[10] = second compound 0.1 µM, first compound 0.1 µM
[11] = second compound 0.1 µM, first compound 0.316 µM
[12] = second compound 0.1 µM, first compound 1 µM
[13] = second compound 0.316 µM, first compound 0.00316 µM
[14] = second compound 0.316 µM, first compound 0.01 µM
[15] = second compound 0.316 µM, first compound 0.0316 µM
[16] = second compound 0.316 µM, first compound 0.1 µM
[17] = second compound 0.316 µM, first compound 0.316 µM
[18] = second compound 0.316 µM, first compound 1 µM
[19] = second compound 1 µM, first compound 0.00316 µM
[20] = second compound 1 µM, first compound 0.01 µM
[21] = second compound 1 µM, first compound 0.0316 µM
[22] = second compound 1 µM, first compound 0.1 µM
[23] = second compound 1 µM, first compound 0.316 µM
[24] = second compound 1 µM, first compound 1 µM
[25] = second compound 3.16 µM, first compound 0.00316 µM
[26] = second compound 3.16 µM, first compound 0.01 µM
[27] = second compound 3.16 µM, first compound 0.0316 µM
[28] = second compound 3.16 µM, first compound 0.1 µM
[29] = second compound 3.16 µM, first compound 0.316 µM
[30] = second compound 3.16 µM, first compound 1 µM
[31] = second compound 10 µM, first compound 0.00316 µM
[32] = second compound 10 µM, first compound 0.01 µM
[33] = second compound 10 µM, first compound 0.0316 µM
[34] = second compound 10 µM, first compound 0.1 µM
[35] = second compound 10 µM, first compound 0.316 µM
[36] = second compound 10 µM, first compound 1 µM
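Further: spheroids exposed to agents for seven days before viability readout.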
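Wherever viability, T/C is given: 100% = DMSO vehicle control viability.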

C=CC(=O)Nc1cc(Nc2nccc(-c3cn(C)c4ccccc34)n2)c(OC)cc1N(C)CCN(C)C + C#Cc1c(F)ccc2cc(O)cc(-c3ncc4c(N5CC6CCC(C5)N6)nc(OCC56CCCN5CC(F)C6)nc4c3F)c12
IC50 (second compound 0.0316 µM): > 1000 nM
IC50 (second compound 0.1 µM): > 1000 nM
IC50 (second compound 0.316 µM): 846 nM
IC50 (second compound 1 µM): 587 nM
IC50 (second compound 3.16 µM): 150 nM
IC50 (second compound 10 µM): 150 nM
viability, T/C [1]: 101%
viability, T/C [2]: 109%
viability, T/C [3]: 101%
viability, T/C [4]: 106%
viability, T/C [5]: 98.1%
viability, T/C [6]: 68.4%
viability, T/C [7]: 106%
viability, T/C [8]: 108%
viability, T/C [9]: 104%
viability, T/C [10]: 110%
viability, T/C [11]: 115%
viability, T/C [12]: 74.5%
viability, T/C [13]: 114%
viability, T/C [14]: 110%
viability, T/C [15]: 109%
viability, T/C [16]: 109%
viability, T/C [17]: 93.2%
viability, T/C [18]: 42.7%
viability, T/C [19]: 112%
viability, T/C [20]: 109%
viability, T/C [21]: 117%
viability, T/C [22]: 82.4%
viability, T/C [23]: 75.5%
viability, T/C [24]: 31.4%
viability, T/C [25]: 104%
viability, T/C [26]: 124%
viability, T/C [27]: 79.8%
viability, T/C [28]: 59.6%
viability, T/C [29]: 42.2%
viability, T/C [30]: 35.9%
viability, T/C [31]: 67.2%
viability, T/C [32]: 71.2%
viability, T/C [33]: 62.2%
viability, T/C [34]: 56.5%
viability, T/C [35]: 39.4%
viability, T/C [36]: 21.7%

O=C(c1ccc(F)c(F)c1Nc1ccc(I)cc1F)N1CC(O)([C@@H]2CCCCN2)C1 + C#Cc1c(F)ccc2cc(O)cc(-c3ncc4c(N5CC6CCC(C5)N6)nc(OCC56CCCN5CC(F)C6)nc4c3F)c12
IC50 (second compound 0.0316 µM): 87.7 nM
IC50 (second compound 0.1 µM): 75.4 nM
IC50 (second compound 0.316 µM): 55.9 nM
IC50 (second compound 1 µM): 30.5 nM
IC50 (second compound 3.16 µM): 19 nM
IC50 (second compound 10 µM): < 3.16 nM
viability, T/C [1]: 112%
viability, T/C [2]: 98%
viability, T/C [3]: 83.8%
viability, T/C [4]: 47.4%
viability, T/C [5]: 12.5%
viability, T/C [6]: 5.72%
viability, T/C [7]: 114%
viability, T/C [8]: 112%
viability, T/C [9]: 85.1%
viability, T/C [10]: 39.3%
viability, T/C [11]: 10%
viability, T/C [12]: 6.39%
viability, T/C [13]: 124%
viability, T/C [14]: 111%
viability, T/C [15]: 73.6%
viability, T/C [16]: 25.3%
viability, T/C [17]: 13%
viability, T/C [18]: 5.14%
viability, T/C [19]: 115%
viability, T/C [20]: 96.3%
viability, T/C [21]: 44.3%
viability, T/C [22]: 24.3%
viability, T/C [23]: 8.74%
viability, T/C [24]: 5.44%
viability, T/C [25]: 75.3%
viability, T/C [26]: 64.9%
viability, T/C [27]: 36.6%
viability, T/C [28]: 23.4%
viability, T/C [29]: 7.41%
viability, T/C [30]: 3.17%
viability, T/C [31]: 48.8%
viability, T/C [32]: 35.3%
viability, T/C [33]: 24.3%
viability, T/C [34]: 14.4%
viability, T/C [35]: 1.94%
viability, T/C [36]: 1.77%
